Results as given in publication PMC12751025, “α‑Aminoboronic Acid Moieties in Boro Dipeptides Modulate Proteasome Subunit Selectivity and Provide Access to Compounds with Potent Anticancer and Anti-Inflammatory Activity” (Journal of Medicinal Chemistry, 2025).

Legend:
β1c subunit of human cCP = biological target: T1, β1c subunit of human cCP (Homo sapiens, UniProt P28072+Q99436); test: IC50 determination with subunit-specific fluorogenic substrate Ac-nLPnLD-AMC; assay type: biochemical; settings: human cCP; mean of at least three experiments; NA: not active at 50 μM
T1 construct: purchased Boston Biochem, Inc
Experimental: (§1) The measurements of the residual activity of control compounds were carried out at final compound concentrations of 1 μM in the assay buffer (50 mM Tris-HCl, 0.5 mM ethylenediaminetetraacetic acid (EDTA), pH 7.4). Stock solutions of the compounds were prepared in DMSO. To the 35 μL of solution of the compound in the buffer, 35 μL of 0.4 nM human iCP (South Bay Bio, San Jose, CA, USA) or human cCP (Boston Biochem, Inc., Cambridge, MA, USA) was added. For assays evaluating the activity of β2c and β2i, the buffer was modified by adding the proteasomal activator PA28β (Boston Biochem, Inc., Cambridge, MA, USA) at a final concentration of 6 nM. […] The substrates used were acetyl-Nle-Pro-Nle-Asp-7-amino-4-methylcoumarin (Ac-nLPnLD-AMC, Bachem, Bubendorf, Switzerland) for β1c, acetyl-Pro-Ala-Leu-7-amino-4-methylcoumarin (Ac-PAL-AMC, Boston Biochem, Inc., Cambridge, MA, USA) for β1i, acetyl-Arg-Leu-Arg-7-amino-4-methylcoumarin (Ac-RLR-AMC, Bachem, Bubendorf, Switzerland) for β2c and β2i, acetyl-Trp-Leu-Ala-7-amino-4-methylcoumarin (Ac-WLA-AMC, Bachem, Bubendorf, Switzerland) for β5c, and acetyl-Ala-Asn-Trp-7-amino-4-methylcoumarin (Ac-ANW-AMC, Bachem, Bubendorf, Switzerland) for β5i. Progress of the reaction was measured using a BioTek Synergy HT microplate reader, monitoring fluorescence at 460 nm (excitation at 360 nm) for 60 min at 37 °C. The initial linear ranges were used to calculate the reaction velocity and determine the residual activity.
(§2) The final assay mixtures contained 0.4 nM human iCP or cCP in assay buffer (50 mM Tris-HCl, 0.5 mM EDTA, pH 7.4, addition of PA28β for β2c and β2i subunits). […] After incubation at 37 °C for 30 min, the reaction was initiated by the addition of the substrate Ac-nLPnLD-AMC for β1c, Ac-PAL-AMC for β1i, Ac-RLR-AMC for β2c and β2i, Ac-WLA-AMC for β5c, and Ac-ANW-AMC for β5i. Fluorescence was monitored at 460 nm (excitation at 360 nm) for 60 min at 37 °C. The reaction progress was recorded and the initial linear phases were used to determine the velocity. The IC50 values were calculated using GraphPad Prism software (GraphPad Software, San Diego, CA, USA), and the results represent the mean values of at least three independent determinations.

β2c subunit of human cCP = biological target: T2, β2c subunit of human cCP (Homo sapiens, UniProt P49720+Q99436); test: IC50 determination with fluorogenic substrate Ac-RLR-AMC (PA28β added); assay type: biochemical; settings: human cCP; mean of at least three experiments; NA: not active at 50 μM
T2 construct: purchased Boston Biochem, Inc
Experimental: Stock solutions of the compounds were prepared in DMSO. To the 35 μL of solution of the compound in the buffer, 35 μL of 0.4 nM human iCP (South Bay Bio, San Jose, CA, USA) or human cCP (Boston Biochem, Inc., Cambridge, MA, USA) was added. For assays evaluating the activity of β2c and β2i, the buffer was modified by adding the proteasomal activator PA28β (Boston Biochem, Inc., Cambridge, MA, USA) at a final concentration of 6 nM. […] The substrates used were acetyl-Nle-Pro-Nle-Asp-7-amino-4-methylcoumarin (Ac-nLPnLD-AMC, Bachem, Bubendorf, Switzerland) for β1c, acetyl-Pro-Ala-Leu-7-amino-4-methylcoumarin (Ac-PAL-AMC, Boston Biochem, Inc., Cambridge, MA, USA) for β1i, acetyl-Arg-Leu-Arg-7-amino-4-methylcoumarin (Ac-RLR-AMC, Bachem, Bubendorf, Switzerland) for β2c and β2i, acetyl-Trp-Leu-Ala-7-amino-4-methylcoumarin (Ac-WLA-AMC, Bachem, Bubendorf, Switzerland) for β5c, and acetyl-Ala-Asn-Trp-7-amino-4-methylcoumarin (Ac-ANW-AMC, Bachem, Bubendorf, Switzerland) for β5i. Progress of the reaction was measured using a BioTek Synergy HT microplate reader, monitoring fluorescence at 460 nm (excitation at 360 nm) for 60 min at 37 °C. The initial linear ranges were used to calculate the reaction velocity and determine the residual activity.
as §2

β5c subunit of human cCP = biological target: T3, β5c subunit of human cCP (Homo sapiens, UniProt P20618+P28074); test: IC50 determination with fluorogenic substrate Ac-WLA-AMC; assay type: biochemical; settings: human cCP; mean of at least three experiments; NA: not active at 50 μM
T3 construct: purchased Boston Biochem, Inc
Experimental: as §1, §2

Caco-2 permeability = assay type: in vitro ADME; settings: human; for Papp A→B at 90 min, 10 μM / Papp B→A at 90 min, 10 μM: pH 7.4, Caco-2, 10 μM; for Papp A→B at 90 min, 10 μM: apical-to-basolateral; for Papp B→A at 90 min, 10 μM: basolateral-to-apical
Experimental: Caco-2 cells were cultured in 75 cm2 flasks to 80-90% confluence in a humidified atmosphere at 37 °C and 5% CO2. Cells were detached with Trypsin/EDTA solution and resuspended in the complete medium containing DMEM high glucose (4500 mg/L) with L-glutamine (4 mM) supplemented with 10% […]
heat-inactivated Fetal Bovine Serum, 1% non-essential amino acids, and 730 nM puromycin and seeded at a density 5 × 10^5 cells in 75 cm2 flask. After 5 days, cells were trypsinized and resuspended in the complete medium to a final concentration of 600 × 10^3 cells/mL. 400 μL of the cell suspension was added to each well of the HTS 24-Multiwell Insert System and 25 mL of prewarmed complete medium was added to the feeder tray. Caco-2 cells were incubated in Multiwell Insert System for 6-10 days before the transport experiments. The medium in the filter plate and feeder tray was refreshed every other day. The 24-well insert plate was removed from its feeder plate and placed in a new sterile 24-well transport analysis plate. The inserts were washed with PBS after medium aspiration. Ketoprofen, atenolol, and digoxin were used as reference compounds.
To determine the rate of compounds transport in apical (A)-to-basolateral (B) direction, 300 μL of the test compound dissolved in transport buffer (Hanks’ BSS (9.5 g/L) and NaHCO3 (0.35 g/L) with MgSO4 to final concentration 0.81 mM, CaCl2 to final concentration 1.26 mM, HEPES to final concentration 25 mM, pH adjusted to 7.4) was added into the filter wells; 1000 μL of transport buffer was added to transport analysis plate wells. To determine transport rates in the basolateral (B)-to-apical (A) direction, 1000 μL of the test compound solutions was added into the wells of the transport analysis plate, the wells in the filter plate were filled with 300 μL of buffer. The final amount of reference and test compounds was 10 μM. The plates were incubated for 90 min at 37 °C under continuous shaking at 100 rpm. 75 μL aliquots were taken from the donor and receiver compartments for LC-MS/MS analysis. All samples were mixed with 2 volumes of acetonitrile followed by protein sedimentation by centrifuging at 10000 rpm for 10 min. Supernatants were analyzed using the HPLC system coupled with a tandem mass spectrometer. […]
The GIT model was simulated using the GIT-0 phospholipid mix.
Verapamil, quinidine (high permeability), and ranitidine (low permeability) were used as reference […]
All compounds were tested in triplicate. Prisma HT buffer (pH 7.4) containing 50 μM test compounds (0.5% DMSO) was added to the Donor Plate wells. Acceptor Sink Buffer was added to each well of the Acceptor Plate. Incubation was done at room temperature for 4 hours without stirring. After

β5i subunit of human iCP = β5i subunit of human iCP (Homo sapiens, UniProt P20618+P28062); test: IC50 determination with fluorogenic substrate Ac-ANW-AMC; settings: IC50 β5i, human iCP; mean of at least three experiments; NA: not active at 50 μM
Experimental: as §1, §2

β2i subunit of human iCP = β2i subunit of human iCP (Homo sapiens, UniProt P40306+P49720); test: IC50 determination with fluorogenic substrate Ac-RLR-AMC (PA28β added)
Experimental: as §1, §2

β1i subunit of human iCP = β1i subunit of human iCP (Homo sapiens, UniProt P28065+P40306); test: IC50 determination with subunit-specific fluorogenic substrate Ac-PAL-AMC; settings: IC50 β1i, human iCP; mean of at least three experiments; NA: not active at 50 μM
Experimental: as §1, §2

PBMCs = test: Cytotoxicity MTS assay; assay type: cell-based, human; settings: 10, 50 and 250 nM, 24 h, MTS (Figure S1)
Experimental: Buffy coats from venous blood of anonymized healthy donors were purchased from Blood Transfusion Centre of Slovenia. PBMCs were isolated by density gradient centrifugation with Ficoll-Paque (Pharmacia, Sweden). The isolated cells were resuspended in RPMI 1640 medium (Sigma-Aldrich, St. Louis/MO, United States) supplemented with 10% heat-inactivated FBS (Gibco, ThermoFisher Scientific, Waltham/MA, United States), 2 mM L-glutamine (Sigma-Aldrich, St. Louis/MO, United States), 100 U/mL penicillin (Sigma-Aldrich, St. Louis/MO, United States), and 100 μg/mL streptomycin (Sigma-Aldrich, St. Louis/MO, United States).
Cytotoxicity was determined using the MTS cell proliferation assay (CellTiter 96 AQueous One Solution Cell Proliferation Assay, Promega, Wisconsin, USA), which measures mitochondrial metabolic activity as a surrogate for cell viability. The assay was performed according to the manufacturer protocol. The cytotoxicity was performed on HepG2, MCF-7, MDA-MB-231, MOLT-4, MM.1S, THP-1, RAJI cell lines and on HUVECs as well as PBMCs. The cells were seeded in 96-well plates (15.000–30.000 cells/well). After 24 h incubation at 5% CO2 and 37 °C, the cells were treated either with DMSO (negative control) or solutions of the tested compounds in DMSO. […] Cells were incubated for additional 2 h - 4 h, followed by the measurement of absorbance at 490 nm on the Tecan Spark microplate reader.

[1] = system: human umbilical vein endothelial cells; test: Cytotoxicity MTS assay; assay type: cell-based; settings: 10, 50 and 250 nM, 72 h, MTS (Figure S2)
Experimental: Cytotoxicity was determined using the MTS cell proliferation assay (CellTiter 96 AQueous One Solution Cell Proliferation Assay, Promega, Wisconsin, USA), which measures mitochondrial metabolic activity as a surrogate for cell viability. The assay was performed according to the manufacturer protocol. The cytotoxicity was performed on HepG2, MCF-7, MDA-MB-231, MOLT-4, MM.1S, THP-1, RAJI cell lines and on HUVECs as well as PBMCs. The cells were seeded in 96-well plates (15.000–30.000 cells/well). After 24 h incubation at 5% CO2 and 37 °C, the cells were treated either with DMSO (negative control) or solutions of the tested compounds in DMSO. After 24 or 72 h, MTS reagent was added. Cells were incubated for additional 2 h - 4 h, followed by the measurement of absorbance at 490 nm on the Tecan Spark microplate reader.

IC50 (β1c subunit of human cCP) [nM]	IC50 (β2c subunit of human cCP) [nM]	IC50 (β5c subunit of human cCP) [nM]	efflux ratio at 90 min, 10 μM (Caco-2 permeability; Caco-2, pH 7.4, quotient of Papp(BA) to Papp(AB))	Papp A→B at 90 min, 10 μM (Caco-2 permeability) [×10⁻⁶ cm/s]	Papp B→A at 90 min, 10 μM (Caco-2 permeability) [×10⁻⁶ cm/s]	IC50 (β5i subunit of human iCP) [nM]	IC50 (β2i subunit of human iCP) [nM]	IC50 (β1i subunit of human iCP) [nM]	SMILES	cytotoxic effect on PBMCs (PBMCs)	cytotoxic effect on human umbilical vein endothelial cells [1]
18	37400	44	8.4	2 ± 0.2	17.1 ± 1	58	1000	3	O=C(N[C@@H](Cc1ccccc1)C(=O)N[C@H](B(O)O)C1CCCC1)c1cnccn1 [5l, ((R)-Cyclopentyl((S)-3-phenyl-2-(pyrazine-2-carboxamido)propanamido)methyl)boronic Acid]	–	–
–	–	–	–	2.8 ± 0.1	20.7 ± 0.1	–	–	–	CC(C)C[C@H](NC(=O)[C@H](Cc1ccccc1)NC(=O)c1cnccn1)B(O)O [bortezomib, reference compound]	more cytotoxic	more cytotoxic
